Read-outs that look alike come from different tables or passages of the source.
Assays:
KRAS G12C = KRAS G12C (Homo sapiens, UniProt P01116+P62937, G12C); test: Ras-Raf disruption/FRET/MOA assay, KRAS G12C; format: biochemical
How it was run: (§1)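 TR-FRET read-out of the K-Ras:RAF complex: decreased ratio relative to DMSO indicates compound-driven cyclophilin A ternary complex formation. Compound (top 30 µM, 3-fold, 10 points), 25 µM cyclophilin A, 12.5 nM GMPPNP-loaded His6-K-Ras and 50 nM GST-BRAF RBD were incubated 3 h at 25 °C (pH 7.3), followed by Eu/APC antibodies for 1.5 h.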

KRAS G12S = KRAS G12S (Homo sapiens, UniProt P01116+P62937, G12S); test: Ras-Raf disruption/FRET/MOA assay, KRAS G12S; format: biochemical
Chain of KRAS G12S (P01116 1-169 isoform P01116-2 G12S limits assumed): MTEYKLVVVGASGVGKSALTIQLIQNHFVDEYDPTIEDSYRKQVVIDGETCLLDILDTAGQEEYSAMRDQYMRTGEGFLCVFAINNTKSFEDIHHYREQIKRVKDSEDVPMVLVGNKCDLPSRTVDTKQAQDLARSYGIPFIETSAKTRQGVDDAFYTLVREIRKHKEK
Chain of KRAS G12S (P62937 whole entry): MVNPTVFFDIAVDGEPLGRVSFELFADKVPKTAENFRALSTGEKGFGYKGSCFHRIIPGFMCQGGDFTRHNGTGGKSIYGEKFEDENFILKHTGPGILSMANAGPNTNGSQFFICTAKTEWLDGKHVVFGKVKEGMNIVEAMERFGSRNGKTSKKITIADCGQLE
How it was run: as §1

KRAS G12D = KRAS G12D (Homo sapiens, UniProt P01116+P62937, G12D); test: Ras-Raf disruption/FRET/MOA assay, KRAS G12D; format: biochemical
Chain of KRAS G12D (P01116 1-169 isoform P01116-2 G12D limits assumed): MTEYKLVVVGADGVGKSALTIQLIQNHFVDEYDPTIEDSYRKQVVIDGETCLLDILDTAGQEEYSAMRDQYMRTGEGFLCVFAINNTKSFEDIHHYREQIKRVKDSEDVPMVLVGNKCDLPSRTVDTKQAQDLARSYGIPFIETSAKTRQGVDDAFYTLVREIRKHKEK
Chain of KRAS G12D (P62937 whole entry): as the sequence (P62937 whole entry) above
How it was run: as §1

NRAS G12C = target: T1, NRAS G12C (Homo sapiens, UniProt P01111+P62937, G12C); test: Ras-Raf disruption/FRET/MOA assay, NRAS G12C; format: biochemical
T1 construct: His6
T1 sequence (P01111 whole entry G12C): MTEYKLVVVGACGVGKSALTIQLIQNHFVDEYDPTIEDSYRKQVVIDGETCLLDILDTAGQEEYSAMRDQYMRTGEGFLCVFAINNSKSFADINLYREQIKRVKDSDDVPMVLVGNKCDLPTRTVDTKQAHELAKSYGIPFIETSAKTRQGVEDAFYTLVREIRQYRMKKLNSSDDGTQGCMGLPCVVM
T1 sequence (P62937 whole entry): as the sequence (P62937 whole entry) above
How it was run: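 Disruption of Ras:RAF binding was read as a drop in TR-FRET ratio versus DMSO controls. The buffer was 25 mM HEPES pH 7.3, 0.002% Tween20, 0.1% BSA, 100 mM NaCl and 5 mM MgCl2. Compounds were tested as a 10-point 3-fold dilution series from 30 μM. Detection used 10 nM anti-His Eu-W1024 and 50 nM anti-GST allophycocyanin.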

KRAS WT = KRAS WT (Homo sapiens, UniProt P01116+P62937); test: Ras-Raf disruption/FRET/MOA assay, KRAS WT; format: biochemical
Chain of KRAS WT (P01116 1-169 isoform P01116-2 limits assumed): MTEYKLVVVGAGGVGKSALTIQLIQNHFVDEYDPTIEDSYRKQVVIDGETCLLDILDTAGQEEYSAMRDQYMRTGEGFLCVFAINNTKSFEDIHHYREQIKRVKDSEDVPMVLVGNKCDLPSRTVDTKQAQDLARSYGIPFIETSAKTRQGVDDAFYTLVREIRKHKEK
Chain of KRAS WT (P62937 whole entry): as the sequence (P62937 whole entry) above
How it was run: as §1

KRAS G12V = KRAS G12V (Homo sapiens, UniProt P01116+P62937, G12V); test: Ras-Raf disruption/FRET/MOA assay, KRAS G12V; format: biochemical
Chain of KRAS G12V (P01116 1-169 isoform P01116-2 G12V limits assumed): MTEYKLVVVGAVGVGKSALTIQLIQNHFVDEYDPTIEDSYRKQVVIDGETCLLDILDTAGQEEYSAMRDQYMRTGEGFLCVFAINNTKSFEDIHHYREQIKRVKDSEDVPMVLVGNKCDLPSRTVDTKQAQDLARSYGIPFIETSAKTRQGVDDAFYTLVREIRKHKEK
Chain of KRAS G12V (P62937 whole entry): as the sequence (P62937 whole entry) above
How it was run: as §1

NCI-H358 (K-Ras G12C) = test: CellTiter-Glo cell viability assay, H358; format: cell-based; conditions: Homo sapiens, NCI-H358, 120 h
How it was run: (§2)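 Luminescent viability readout on day 5, plates first brought to room temperature for ~30 min; compounds added straight to plated RAS-mutant cells. Values expressed as percent of mean DMSO signal, curves fitted with a four-parameter logistic model.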

KRAS G13D = KRAS G13D (Homo sapiens, UniProt P01116+P62937, G13D); test: Ras-Raf disruption/FRET/MOA assay, KRAS G13D; format: biochemical
Chain of KRAS G13D (P01116 1-169 isoform P01116-2 G13D limits assumed): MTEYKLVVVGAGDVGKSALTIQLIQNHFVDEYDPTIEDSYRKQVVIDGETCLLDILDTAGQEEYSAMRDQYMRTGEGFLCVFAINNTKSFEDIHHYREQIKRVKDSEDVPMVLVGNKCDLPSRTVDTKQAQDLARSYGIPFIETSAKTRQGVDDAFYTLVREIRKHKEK
Chain of KRAS G13D (P62937 whole entry): as the sequence (P62937 whole entry) above
How it was run: as §1

KRAS G13C = KRAS G13C (Homo sapiens, UniProt P01116+P62937, G13C); test: Ras-Raf disruption/FRET/MOA assay, KRAS G13C; format: biochemical
Chain of KRAS G13C (P01116 1-169 isoform P01116-2 G13C limits assumed): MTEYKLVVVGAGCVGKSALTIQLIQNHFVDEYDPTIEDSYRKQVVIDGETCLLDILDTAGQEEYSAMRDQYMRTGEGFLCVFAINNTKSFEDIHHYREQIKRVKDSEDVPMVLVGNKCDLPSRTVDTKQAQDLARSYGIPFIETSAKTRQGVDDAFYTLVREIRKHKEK
Chain of KRAS G13C (P62937 whole entry): as the sequence (P62937 whole entry) above
How it was run: as §1

AsPC-1 (K-Ras G12D) [1] = test: Potency assay: pERK in AsPC-1 cells; format: cell-based; conditions: Homo sapiens, ASPC1, read-out: pERK EC50 (AsPC-1 KRAS G12D)
AsPC-1 (K-Ras G12D) [2] = test: CellTiter-Glo cell viability assay, AsPC-1; format: cell-based; conditions: Homo sapiens, ASPC1, 120 h
How it was run: as §2

[3] = NRAS G12C FRET data IC50, NRAS G12C
[4] = read-out: H358 Cell Viability IC50, NCI-H358, K-Ras G12C, 5-day treatment
[5] = read-out: AsPC-1 Cell Viability IC50, AsPC-1, K-Ras G12D, 5-day treatment
[6] = disruption of BRAF RBD binding, with Cyclophilin A, read-out: KRAS G12C FRET IC50
[7] = disruption of BRAF RBD binding, with Cyclophilin A, read-out: KRAS G12S FRET IC50
[8] = disruption of BRAF RBD binding, with Cyclophilin A, read-out: KRAS G12D FRET IC50
[9] = NRAS G12C, read-out: NRAS G12C FRET data IC50
[10] = disruption of BRAF RBD binding, with Cyclophilin A, read-out: KRAS WT FRET IC50
[11] = disruption of BRAF RBD binding, with Cyclophilin A, read-out: KRAS G12V FRET IC50
[12] = read-out: H358 Cell Viability IC50
[13] = disruption of BRAF RBD binding, with Cyclophilin A, read-out: KRAS G13D FRET IC50
[14] = disruption of BRAF RBD binding, with Cyclophilin A, read-out: KRAS G13C FRET IC50
[15] = read-out: AsPC-1 Cell Viability IC50

Chain of KRAS G12C (P01116 1-169 isoform P01116-2 G12C limits assumed): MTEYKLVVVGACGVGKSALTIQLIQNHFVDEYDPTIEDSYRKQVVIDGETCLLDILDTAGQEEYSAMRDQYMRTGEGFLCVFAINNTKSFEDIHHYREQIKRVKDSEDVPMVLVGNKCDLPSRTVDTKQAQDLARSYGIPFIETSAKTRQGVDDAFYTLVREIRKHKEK
Chain of KRAS G12C (P62937 whole entry): as the sequence (P62937 whole entry) above

| Structure (SMILES) | IC50 (KRAS G12C) [nM] | IC50 (KRAS G12S) [nM] | IC50 (KRAS G12D) [nM] | IC50 (NRAS G12C; [3]) [nM] | IC50 (KRAS WT) [nM] | IC50 (KRAS G12V) [nM] | IC50 (NCI-H358 (K-Ras G12C); [4]) [nM] | IC50 (KRAS G13D) [nM] | IC50 (KRAS G13C) [nM] | EC50 (AsPC-1 (K-Ras G12D) [1]) [nM] | IC50 (AsPC-1 (K-Ras G12D) [2]; [5]) [nM] | IC50 (KRAS G12C; [6]) [nM] | IC50 (KRAS G12S; [7]) [nM] | IC50 (KRAS G12D; [8]) [nM] | IC50 (NRAS G12C; [9]) [nM] | IC50 (KRAS WT; [10]) [nM] | IC50 (KRAS G12V; [11]) [nM] | IC50 (NCI-H358 (K-Ras G12C); [12]) [nM] | IC50 (KRAS G13D; [13]) [nM] | IC50 (KRAS G13C; [14]) [nM] | also measured |
| --- | --- | --- | --- | --- | --- | --- | --- | --- | --- | --- | --- | --- | --- | --- | --- | --- | --- | --- | --- | --- | --- |
| CCn1c(-c2cnccc2COC)c2c3cc(ccc31)-c1cc(O)cc(c1)C[C@H](NC(=O)[C@H](C(C)C)N(C)C(=O)CN(C)C(=O)[C@@H]1CN1)C(=O)N1CCC[C@H](N1)C(=O)OCC(C)(C)C2 [Compound 8] | 10 to 100 | 10 to 100 | 100 to 1000 | 10 to 100 | 100 to 1000 | 100 to 1000 | 10 to 100 | 100 to 1000 | 10 to 100 | < 5000 | 1000 to 10000 | – | – | – | – | – | – | – | – | – | – |
| CCn1c(-c2cnccc2COC)c2c3cc(ccc31)-c1cc(O)cc(c1)C[C@H](NC(=O)[C@H](C(C)C)N(C)C(=O)CN(C)C(=O)[C@H]1CN1Cc1ccccc1)C(=O)N1CCC[C@H](N1)C(=O)OCC(C)(C)C2 (some centres unmarked) [Compound 9] | 10 to 100 | 100 to 1000 | 1000 to 10000 | 10 to 100 | 100 to 1000 | 100 to 1000 | 10 to 100 | 100 to 1000 | 100 to 1000 | < 5000 | 1000 to 10000 | – | – | – | – | – | – | – | – | – | – |
| CCn1c(-c2cnccc2COC)c2c3cc(ccc31)-c1cc(O)cc(c1)C[C@H](NC(=O)[C@H](C(C)C)N(C)C(=O)CN(C)C(=O)[C@@H]1CN1Cc1ccccc1)C(=O)N1CCC[C@H](N1)C(=O)OCC(C)(C)C2 (some centres unmarked) [Compound 10] | 10 to 100 | 10 to 100 | 1000 to 10000 | 10 to 100 | 100 to 1000 | 100 to 1000 | 10 to 100 | 1000 to 10000 | 100 to 1000 | < 5000 | 1000 to 10000 | – | – | – | – | – | – | – | – | – | – |
| CCn1c(-c2cnccc2COC)c2c3cc(ccc31)-c1cc(O)cc(c1)C[C@H](NC(=O)[C@H](C(C)C)N(C)C(=O)CN(C)C(=O)C1CN1S(C)(=O)=O)C(=O)N1CCC[C@H](N1)C(=O)OCC(C)(C)C2 (some centres unmarked) [Compound 13] | – | – | – | – | – | – | – | – | – | < 5000 | – | 10 to 100 | 10 to 100 | 100 to 1000 | 10 to 100 | 10 to 100 | 10 to 100 | 10 to 100 | 100 to 1000 | 10 to 100 | IC50 (AsPC-1 (K-Ras G12D) [2]; [15]): 1000 to 10000 nM |
| CCn1c(-c2cnccc2COC)c2c3cc(ccc31)-c1cc(O)cc(c1)C[C@H](NC(=O)[C@H](C(C)C)N(C)C(=O)CN(C)C(=O)C1CN1C(C)=O)C(=O)N1CCC[C@H](N1)C(=O)OCC(C)(C)C2 (some centres unmarked) [Compound 14] | – | – | – | – | – | – | – | – | – | < 5000 | – | 10 to 100 | 100 to 1000 | 100 to 1000 | 10 to 100 | 100 to 1000 | 100 to 1000 | 100 to 1000 | 100 to 1000 | 10 to 100 | IC50 (AsPC-1 (K-Ras G12D) [2]; [15]): 1000 to 10000 nM |
| CCn1c(-c2cnccc2COC)c2c3cc(ccc31)-c1cc(O)cc(c1)C[C@H](NC(=O)[C@@H](CNC1=NCCO1)C(C)C)C(=O)N1CCC[C@H](N1)C(=O)OCC(C)(C)C2 [Compound 29] | – | – | – | – | – | – | – | – | – | – | – | 1000 to 10000 | 1000 to 10000 | 1000 to 10000 | 1000 to 10000 | 1000 to 10000 | 1000 to 10000 | – | 1000 to 10000 | 1000 to 10000 | IC50 (NCI-H358 (K-Ras G12C); NCI-H358, K-Ras G12C, 5-day treatment, read-out: H358 Cell Viability IC50): 1000 to 10000 nM; IC50 (AsPC-1 (K-Ras G12D) [2]; AsPC-1, K-Ras G12D, 5-day treatment, read-out: AsPC-1 Cell Viability IC50): 1000 to 10000 nM |
